# pEC50: −log10 of the molar value. Values joined by “and” are separate entries in the source; they are usually repeats but may differ in a detail not shown here. Equal values may be shown once. Read-outs that look alike come from different tables or passages of the source. *1 amine or outer side, *2 acyl side, *3 side chain or, on linkers, in order; H or OH if unused. Where a SMILES comes first, the peptide text is derived from it. Bridges are numbered along the chain shown (N, C = ends). [ ]: non-standard residue; d: D form. The star is where a group is joined. X1 = CC[C@H](C)[C@@H](N[*:1])[C@@H](O)CC(=O)O[C@H](C(=O)[C@H](C)C(=O)[*:2])C(C)C; NMeY = CN[C@@H](Cc1ccc(O)cc1)C(=O)O; dNMeL = CN[C@H](CC(C)C)C(=O)O; Pyruvoyl = CC(=O)C(=O)*
# Columns and labels:
# Vero E6 cells = assay: Cytotoxicity assay (Cell Titer-Glo 2.0) in Vero E6 cells; type: cell-based; conditions: 24 h, single experiments N1-N4
# Procedure: (§1) Calu-3 and Vero E6 cells (2500 or 10,000 cells for samples, 80–20,000 cells for standard curve) were seeded in 96-well plates. Following a 24-h incubation at 37 °C, 5% CO2, cells were washed with D-PBS and compounds added (10 µM) for an additional 24-h incubation. Cellular viability was assessed using Cell Titer-Glo 2.0 Cell Viability Assay (Promega) according to the manufacturer’s instructions. The number of viable cells was extrapolated using the standard curve. Cellular viability in Vero E6 cells was expressed relative (%) to vehicle-treated cells. Data are from four independent experiments (mean ± s.d.).
# human TMPRSS2 = human TMPRSS2 (Homo sapiens, UniProt O15393); assay: cell-based; conditions: for TMPRSS2 activity (%): Figure 1B, single experiments N1-N3
# [1] = tested on: SARS-CoV-2 lineage B strain (VIDO); assay: microbe, parasite or virus in culture; type: cell-based; conditions: for Nucleocapsid / dsRNA: Figure 2a, two replicates; for Nucleocapsid: DMSO control about 91-94; for dsRNA: DMSO control about 93-95; for inhibition at 0.1 µM: read-out: inhibition of SARS-CoV-2 infection
# [2] = Cytotoxicity assay (Cell Titer-Glo 2.0) in Vero E6 cells; type: cell-based; conditions: African green monkey, % Viability of Vero E6 cells
# Procedure: as §1
# SARS-CoV-2 (VIDO) [3] = type: cell-based; set-up: plaque assay titre, Figure 2c: unit not given beside the values; conditions: for reduction of viral titre (plaque assay): supernatant of infected Calu-3 cells, vs DMSO-treated infected control; for plaque assay titre, Figure 2c: replicate columns
# [4] = tested on: SARS-CoV-2 (USA-WA1/2020, lineage A); assay: K18-hACE2 mouse model of SARS-CoV-2, IHC of nucleocapsid with digital image analysis; type: in vivo, K18-hACE2 mice; conditions: individual mice, 8-day regimen, tissue at death or end-point
# Procedure: To detect viral antigen, sections were labelled with anti-SARS-CoV-2 nucleocapsid protein rabbit IgG monoclonal antibody (GeneTex; GTX635679) at a 1:5,000 dilution and processed using a Leica Bond Max automated IHC stainer. Leica Bond Polymer Refine Detection (Leica; DS9800) with DAB was used as the chromogen. Image acquisition was performed using a Roche Ventana DP200 slide scanner. Digital image analysis was performed using QuPath software[65],[66] v.0.2.3. Tissues were annotated to include all available lung tissue or all brain tissue excluding cerebellum, as cerebellar tissue was not available for all mice. Following annotation, automated detection was performed using automated SLIC superpixel segmentation with a DAB mean detection threshold of 0.18892.
# [5] = tested on: SARS-CoV-2 (USA-WA1/2020, lineage A); type: in vivo, K18-hACE2 mice; conditions: Figure S8 C, tissue plaque assay, individual animals
# [6] = tested on: SARS-CoV-2 (USA-WA1/2020, lineage A); assay: K18-hACE2 mouse model of SARS-CoV-2, H&E histopathology of lung and brain; conditions: 8-day regimen
# Procedure: For histological examination, mouse lungs and brains were collected directly after euthanasia and placed in 10% formalin for more than 72 h, after which tissues were embedded in paraffin. Tissue sections (4 μm) were analysed after staining with H&E and scored blinded by an anatomic pathologist. For lung, scores were applied based on the percentage of each tissue type (alveolus, vessels and so on) affected using the following criteria: (0) normal; (1) less than 10% affected; (2) 10–25% affected; (3) 26–50% affected; and (4) more than 50% affected[64]. Assessment of lung pathology in K18-hACE2 mice infected with the SARS-CoV-2 B.1.617.2 (Delta) VOC after single-dose treatment was performed on IHC sections counterstained with haematoxylin. For brains, histological scoring was assessed for perivascular inflammation using the most severely affected vessel and the following criteria: (0) no perivascular inflammation; (1) incomplete cuff one cell layer thick; (2) complete cuff one cell layer thick; (3) complete cuff two to three cells thick; and (4) complete cuff four or more cells thick. Necrotic cells in the neuroparenchyma were assessed per 0.237 mm^2 field using the most severely affected area and the following criteria: (0) no necrotic cells; (1) rare individual necrotic cells; (2) fewer than 10 necrotic cells; (3) 11 to 25 necrotic cells; (4) 26 to 50 necrotic cells; and (5) greater than 50 cells.
# SARS-CoV-2 (VIDO) [7] = assay: microbe, parasite or virus in culture; type: cell-based; conditions: Severe acute respiratory syndrome coronavirus 2; colonoids pretreated 3 h with 100 nM, infected 3 days, vs DMSO-treated; read-out: inhibition of SARS-CoV-2 infection in colonoids
# [8] = tested on: SARS-CoV-2 (USA-WA1/2020, lineage A); set-up: species or system K18-hACE2 mice; conditions: mouse, in vivo
# SARS-CoV-2 = tested on: SARS-CoV-2; set-up: method as in PMID 33495306; conditions: pneumocyte-like cells; read-out: EC50 against SARS-CoV-2 infection; cited from earlier work
# [9] = Severe acute respiratory syndrome coronavirus 2, Calu-3
# [10] = individual mice, tissue at death or end-point
# human TMPRSS2, sequence (O15393 whole entry): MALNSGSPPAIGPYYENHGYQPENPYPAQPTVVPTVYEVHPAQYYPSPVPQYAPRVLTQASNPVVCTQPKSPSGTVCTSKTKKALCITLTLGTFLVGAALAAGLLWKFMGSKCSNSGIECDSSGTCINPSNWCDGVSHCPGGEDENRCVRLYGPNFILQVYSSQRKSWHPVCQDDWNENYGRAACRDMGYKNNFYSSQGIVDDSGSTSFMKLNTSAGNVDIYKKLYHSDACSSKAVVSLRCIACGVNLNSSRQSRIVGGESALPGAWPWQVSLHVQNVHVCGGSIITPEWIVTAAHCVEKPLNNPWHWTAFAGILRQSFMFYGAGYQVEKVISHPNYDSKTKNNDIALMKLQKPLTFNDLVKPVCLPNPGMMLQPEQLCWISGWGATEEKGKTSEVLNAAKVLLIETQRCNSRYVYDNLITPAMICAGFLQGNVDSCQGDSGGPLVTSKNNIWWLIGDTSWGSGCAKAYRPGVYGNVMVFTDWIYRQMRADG
compound,measurement,setting,value
CC(NC(=O)C(CCC(N)=O)NC(=O)C(N)CCCNC(=N)N)C(=O)NC(CCCNC(=N)N)C(=O)c1nc2ccccc2s1 (stereo not shown) [Compound N-0100],% Viability of Vero E6 cells,"Vero E6 cells; 10 μM compound, relative to vehicle (DMSO 0.01%), 10 µM",122.116% and 96.727% and 87.5998% and 134.594%
same,inhibition of TMPRSS2 activity (reduction of substrate proteolysis),"human TMPRSS2; 10 nM compound, 24 h, vs untreated/vehicle TMPRSS2-expressing Vero E6 cells",did not inhibit
same,TMPRSS2 activity (%),human TMPRSS2,113.572% and 108.611% and 101.926%
same,Nucleocapsid,[1],59.9825 and 100
same,dsRNA,[1],53.1735 and 98.3497
same,inhibition at 0.1 µM,[1]; [9],< 25%
N=C(N)NCCCCC(=O)NC(CCC(N)=O)C(=O)NC(CC1CCCCC1)C(=O)NC(CCCNC(=N)N)C(=O)c1nc2ccccc2s1 (stereo not shown) [Compound N-0678],"viability at 24 h, 10 µM",[2],113%
same,TMPRSS2 activity (%),human TMPRSS2,91.6478% and 104.935% and 97.8749%
same,inhibition at 0.01 µM,"human TMPRSS2; Vero C1008, 10 nM compound, 24 h, vs untreated/vehicle TMPRSS2-expressing Vero E6 cells, read-out: inhibition of TMPRSS2 activity (reduction of substrate proteolysis)",5%
same,Nucleocapsid,[1],70.7269 and 93.9071
same,dsRNA,[1],64.9837 and 89.8579
same,inhibition at 0.1 µM,[1]; [9],< 23%
"CS(=O)(=O)NC(CCC(N)=O)C(=O)NC(Cc1ccccc1)C(=O)NC(CCCNC(=N)N)C(O)c1nc2ccccc2s1 (stereo not shown) [N-0385(OH), Ms-QFR-Kbt(OH)]",reduction of viral titre (plaque assay),SARS-CoV-2 (VIDO) [3]; 40 nM,did not induce reduction
same,"plaque assay titre, Figure 2c",SARS-CoV-2 (VIDO) [3]; 40 nM,240000 and 1067000 and 627000 and 715000 and 1050000 and 440000 and 310000 (2×) and 190000 and 70000 and 400000 and 350000 and 264000 and 242000
same,reduction of viral titre (plaque assay),SARS-CoV-2 (VIDO) [3]; 200 nM,did not induce reduction
same,"plaque assay titre, Figure 2c",SARS-CoV-2 (VIDO) [3]; 200 nM,200000 and 150000 (2×) and 30000 and 500000 (4×) and 780000 and 594000 and 286000 and 190000 and 950000
same,reduction in TMPRSS2 activity,human TMPRSS2; cells treated with up to 10 μM,no significant reduction
same,inhibition of SARS-CoV-2 infection in dose-response,"[1]; Calu-3 cells, concentrations up to 1 μM",substantial inhibition was not observed
same,Nucleocapsid,[1],67.4057 and 91.7182
same,dsRNA,[1],60.8663 and 93.4144
same,pEC50,"[1]; Severe acute respiratory syndrome coronavirus 2, Calu-3, read-out: SARS-CoV-2 VIDO Nucleocapsid EC50 ± SE",< 6.00
same,inhibition at 0.1 µM,[1]; [9],< 23%
same,"Figure 2b dose-response, Mean",[1]; log [C] (nM) 0.20412,76.2535
same,"Figure 2b dose-response, Mean",[1]; log [C] (nM) 0.90309,92.6293
same,"Figure 2b dose-response, Mean",[1]; log [C] (nM) 1.60206,68.5403
same,"Figure 2b dose-response, Mean",[1]; log [C] (nM) 2.30103,90.4217
same,"Figure 2b dose-response, Mean",[1]; log [C] (nM) 3,72.2184
same,"Figure 2b dose-response, Mean",[1]; log [C] (nM) -0.49485,87.0011
same,"Figure 2b dose-response, Mean",[1]; log [C] (nM) -1.19382,84.82
same,Brain No. Positive (IHC detections),[4],205622 and 308647 and 423604 and 84 and 143563 and 207074 and 97743 and 210 and 4043 and 310256
same,Brain No. Positive per mm^2,[4],4555.9 per mm^2 and 7896.3 per mm^2 and 7494 per mm^2 and 2.578 per mm^2 and 3909.6 per mm^2 and 5209.1 per mm^2 and 2144.6 per mm^2 and 10.67 per mm^2 and 137.97 per mm^2 and 6010.9 per mm^2
same,Brain Positive %,[4],45.15% and 78.61% and 74.5% and 0.0256% and 38.77% and 51.89% and 21.4% and 0.1052% and 1.361% and 59.5%
same,Lung No. Positive (IHC detections),[4],39230 and 61582 and 572 and 191 and 315 and 37366 and 98 and 384 and 178
same,Lung No. Positive per mm^2,[4],2703.8 per mm^2 and 1622.2 per mm^2 and 26.11 per mm^2 and 8.074 per mm^2 and 15.79 per mm^2 and 10.94 per mm^2 and 1638.9 per mm^2 and 3.505 per mm^2 and 17.97 per mm^2 and 6.38 per mm^2
same,Lung Positive %,[4],26.59% and 15.97% and 0.2589% and 0.0798% and 0.1558% and 0.1086% and 16.31% and 0.0348% and 0.1784% and 0.063%
same,PFU/g,[5]; Females,15000000 PFU/g and 1441176 PFU/g and 8676471 PFU/g and 0 PFU/g and 2014706 PFU/g
same,PFU/mL,[5]; Females,3000000 PFU/mL and 288235 PFU/mL and 1735294 PFU/mL and 0 PFU/mL and 402941 PFU/mL
same,PFU/g,[5]; Males,0 PFU/g and 9852941 PFU/g and 720588 PFU/g
same,PFU/mL,[5]; Males,0 PFU/mL and 1970588 PFU/mL and 144118 PFU/mL
same,Brain lesions (H&E),"[6]; N-0385: surviving mice, day 14",reduced
same,Perivascular infiltrates in CNS score,"[6]; individual mice, most severely affected vessel",0 and 2 and 1
same,Alveolar cells score,[6]; [10],0 and 1 ((1) <10% affected) and 2 ((2) 10–25% affected)
same,Alveolar edema score,[6]; [10],0 and 1 ((1) <10% affected) and 2 ((2) 10–25% affected)
same,Alveolar fibrin score,[6]; [10],0 and 1 ((1) <10% affected) and 2 ((2) 10–25% affected)
same,Fibrosis score,[6]; [10],0
same,Interstitial infiltrates in lung score,[6]; [10],0 and 1 ((1) <10% affected) and 3 ((3) 26–50% affected)
same,Lymphoid hyperplasia score,[6]; [10],0
same,Perivascular infiltrate in lung score,[6]; [10],1 ((1) <10% affected) and 3 ((3) 26–50% affected) and 0
same,Type II pneumocyte hyperplasia score,[6]; [10],0 and 1 ((1) <10% affected) and 3 ((3) 26–50% affected)
same,inhibition at 0.1 µM,SARS-CoV-2 (VIDO) [7],< 20%
same,average weight loss at 6 dpi,[8],12%
same,survival to the end-point (14 dpi),[8],10%
same,weight loss at the study end-point,[8],15%
CC[C@H](C)[C@H]1NC(=O)[C@@H](NC(=O)[C@@H](CC(C)C)N(C)C(=O)[C@@H]2CCCN2C(=O)C(C)=O)[C@@H](C)OC(=O)[C@H](Cc2ccc(OC)cc2)N(C)C(=O)[C@@H]2CCCN2C(=O)[C@H](CC(C)C)NC(=O)[C@@H](C)C(=O)[C@H](C(C)C)OC(=O)C[C@@H]1O [Plitidepsin] (Pyruvoyl-P[dNMeL]T[X1]LP[NMeY](Me); ester 3-C),pEC50,SARS-CoV-2,8.79
Triton X-100 [reference compound],% Viability of Vero E6 cells,Vero E6 cells; Triton X-100 0.01% toxicity control,0.08115% and 6.372% and 5.985% and 2.918%
